This data set can be described thus: Solubility testing in water by portionwise addition until saturation. In kind it is physicochemical. The conditions noted are these: for Amount (g) of compound added until saturation: added portionwise to 10 mL water; for Physical appearance: after portionwise addition to 10 mL water; for Filtration: filtration of the sample attempted after stirring overnight; for solubility at 4 weeks: pH 7, aqueous buffer, 50% dilution with water, adjusted to pH 7, T = 4 weeks; for solubility at 0 weeks: estimated from weight added; for solubility: Conclusions: suspensions stirred overnight, filtered and analyzed by HPLC, initial. Here is the method: The solubility of compounds 2-4 was determined by portionwise addition of the compounds to water until saturation was obtained. Water (10 mL) was added to a 20-mL vial. About 100 mg of Compound 2 was added. The suspension was stirred at room temperature for 20 minutes until the contents became a clear solution. Compound 2 (˜100 mg portionwise) was added repeatedly with 30 min stirring time between the additions. Once a suspension was obtained after continuous stirring for 2 hours, the suspension was stirred overnight. The same procedure was used for the suspension preparations of Compound 3 and Compound 4.
After stirring overnight, filtration of each sample was attempted.
An aliquot of the suspension of Compound 2 was filtered through a 0.22 micron inline syringe filter.
About 1 mL of the aqueous solutions prepared above was diluted with water by 50%. The pH of the 50% diluted solutions was adjusted to pH 7 either by 0.1 N HCl or by 0.1 N NaOH. Solubility values for the three compounds in the solutions/suspensions before and after dilution are given in the in TABLE 3.
The solubility of Compounds 2-4 was determined by portionwise addition of the compounds to water until saturation was obtained. After stirring overnight, the suspensions were filtered and analyzed by HPLC. […] The solubility of Compound 3 was >200 mg/mL. The absolute solubility of Compound 3 was not determined because in the course of analysis, the solution of Compound 3 became too viscous to stir. […] The 50% diluted solutions of Compounds 2-4 were not viscous, and the compounds remained in solution for 4 weeks. […] All of the diluted solutions were easily syringable over 4 weeks' time.

Setting [1] is: water, thermodynamic from solid, Before dilution, T = 0.
Where [2] appears, read: water, thermodynamic from solid.

The structures appear in SMILES notation. Several values for one entry are separate records, joined by “and”; a condition that tells them apart may be missing. Identical values can stand only once. Entries after “also recorded” stand apart in the source; their conditions may differ. Marks after values point to notes of the source that are not given here.

As a reminder, the solubility is the concentration that dissolves in the medium under given conditions. As to `COC(=O)N(C)[C@@H](Cc1ccccc1)C(=O)N[C@@H](Cc1ccc(NS(=O)(=O)[O-])cc1)c1csc(-c2cccs2)n1.[Na+]` [Compound 2, sodium (4-{(S)-2-{(S)-2-[(methoxycarbonyl)(methyl)amino]-3-phenylpropanamido}-2-[2-(thiophen-2-yl)thiazol-4-yl]ethyl}phenyl)sulfamate], the Physical appearance result is given as “formed a suspension; also recorded: Precipitate”; the Filtration entry is “difficult and Yes”. Under “50% dilution, T = 4 weeks”, the “Physical state of the preparation” value is “(solution) ***”. Besides, the “Physical state of the preparation” value (Before dilution, T = 0) was “(suspension)”. Moreover, the “Amount (g) of compound added until saturation” value (room temperature) is 2.53 g and 2.528 g. Moreover, the “Concentration in clear filtrate as share of the concentration of the initial, supersaturated solution” value (suspension filtered through 0.22 micron filter after 5 weeks) is reported as 25%. For the same compound, the solubility at 4 weeks (water) is ~125 mg/mL. Also, the solubility at 0 weeks under setting [1] was ~250 mg/mL. The same compound displayed a solubility at 5 weeks (water, thermodynamic from solid, Before dilution, T = 5 weeks, room temperature) of 49.5 mg/mL. In addition, the solubility under setting [2] was ~200 mg/mL.
With `COC(=O)N(C)[C@@H](Cc1ccccc1)C(=O)N(C)[C@@H](Cc1ccc(NS(=O)(=O)[O-])cc1)c1csc(-c2cccs2)n1.[Na+]` [Compound 4, sodium (4-{(S)-2-{(S)-2-[(methoxycarbonyl)(methyl)amino]-N-methyl-3-phenylpropanamido}-2-[2-(thiophen-2-yl)thiazol-4-yl]ethyl}phenyl)sulfamate], the Physical appearance result is “formed a suspension; also recorded: Precipitate”; the Filtration entry was “proceeded readily and Yes”. Moreover, the “Physical state of the preparation” value (50% dilution, T = 4 weeks) is listed as “(solution)”. Further, the “Physical state of the preparation” value (Before dilution, T = 0) is reported as “(solution)”. For the same compound, the “Solubility value in water” value (Before dilution, T = 5 weeks, room temperature) is recorded as “No change*”. Also, the “Amount (g) of compound added until saturation” value (room temperature) amounted to 0.624 g. Under “water”, the solubility at 4 weeks stood at 31 mg/mL. Further, under setting [1], the solubility at 0 weeks was 62 mg/mL. Under setting [2], the solubility was ~58 mg/mL.
